Source: ChEMBL document CHEMBL5338745, “Factor XIa Inhibitors in Anticoagulation Therapy: Recent Advances and Perspectives” (J Med Chem, 2023)

Key:
Coagulation factor XII = target: T1, Coagulation factor XII (Homo sapiens, UniProt P00748); experiment: Inhibition of human FXIIa
T1 sequence (P00748 whole entry): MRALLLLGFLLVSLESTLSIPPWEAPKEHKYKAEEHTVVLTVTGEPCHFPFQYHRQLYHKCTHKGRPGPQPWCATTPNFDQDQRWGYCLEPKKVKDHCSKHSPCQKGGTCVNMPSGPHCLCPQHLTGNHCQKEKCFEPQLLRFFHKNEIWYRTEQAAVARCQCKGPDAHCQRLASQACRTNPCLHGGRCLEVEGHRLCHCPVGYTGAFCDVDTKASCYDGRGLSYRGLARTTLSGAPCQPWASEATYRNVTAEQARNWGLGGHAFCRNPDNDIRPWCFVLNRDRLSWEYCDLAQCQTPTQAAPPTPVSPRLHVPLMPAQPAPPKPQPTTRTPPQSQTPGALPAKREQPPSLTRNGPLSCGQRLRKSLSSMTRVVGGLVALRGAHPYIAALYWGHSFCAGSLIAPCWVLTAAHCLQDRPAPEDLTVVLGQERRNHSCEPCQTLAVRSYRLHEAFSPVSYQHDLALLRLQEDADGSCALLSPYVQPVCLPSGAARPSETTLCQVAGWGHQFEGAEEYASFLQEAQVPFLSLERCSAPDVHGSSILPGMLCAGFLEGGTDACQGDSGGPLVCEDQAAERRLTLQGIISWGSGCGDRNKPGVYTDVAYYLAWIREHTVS

Coagulation factor VII = target: T2, Coagulation factor VII (Homo sapiens, UniProt P08709); experiment: Inhibition of human FVIIa
T2 sequence (P08709 whole entry): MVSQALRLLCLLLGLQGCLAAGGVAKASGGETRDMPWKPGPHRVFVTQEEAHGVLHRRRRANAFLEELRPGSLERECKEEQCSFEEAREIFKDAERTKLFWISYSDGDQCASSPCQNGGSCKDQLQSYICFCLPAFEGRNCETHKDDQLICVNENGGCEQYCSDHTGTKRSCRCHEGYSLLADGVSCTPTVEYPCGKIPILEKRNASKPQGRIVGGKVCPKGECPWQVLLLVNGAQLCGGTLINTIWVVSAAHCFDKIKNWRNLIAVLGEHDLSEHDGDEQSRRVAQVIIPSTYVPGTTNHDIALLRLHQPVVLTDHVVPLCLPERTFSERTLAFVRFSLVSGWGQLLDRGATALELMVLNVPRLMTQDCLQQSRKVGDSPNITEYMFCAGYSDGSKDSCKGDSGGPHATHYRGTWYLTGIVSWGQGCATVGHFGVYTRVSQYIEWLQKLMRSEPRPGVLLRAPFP

Trypsin = Trypsin (Homo sapiens, UniProt P07477+P07478+P35030); experiment: Inhibition of human trypsin; format: protein assay
Coagulation factor XI = Coagulation factor XI (Homo sapiens, UniProt P03951); experiment: Inhibition of FXIa (unknown origin)
Plasminogen = Plasminogen (Homo sapiens, UniProt P00747); experiment: Inhibition of human plasmin
Chymotrypsin = Chymotrypsin (Homo sapiens, UniProt Q99895+P17538+P40313+Q6GPI1); experiment: Inhibition of human chymotrypsin; format: protein assay
Coagulation factor X = Coagulation factor X (Homo sapiens, UniProt P00742); experiment: Inhibition of human FXa
Prothrombin = Prothrombin (Homo sapiens, UniProt P00734); experiment: Inhibition of human thrombin

Sequence of Plasminogen (P00747 97-580 limits assumed): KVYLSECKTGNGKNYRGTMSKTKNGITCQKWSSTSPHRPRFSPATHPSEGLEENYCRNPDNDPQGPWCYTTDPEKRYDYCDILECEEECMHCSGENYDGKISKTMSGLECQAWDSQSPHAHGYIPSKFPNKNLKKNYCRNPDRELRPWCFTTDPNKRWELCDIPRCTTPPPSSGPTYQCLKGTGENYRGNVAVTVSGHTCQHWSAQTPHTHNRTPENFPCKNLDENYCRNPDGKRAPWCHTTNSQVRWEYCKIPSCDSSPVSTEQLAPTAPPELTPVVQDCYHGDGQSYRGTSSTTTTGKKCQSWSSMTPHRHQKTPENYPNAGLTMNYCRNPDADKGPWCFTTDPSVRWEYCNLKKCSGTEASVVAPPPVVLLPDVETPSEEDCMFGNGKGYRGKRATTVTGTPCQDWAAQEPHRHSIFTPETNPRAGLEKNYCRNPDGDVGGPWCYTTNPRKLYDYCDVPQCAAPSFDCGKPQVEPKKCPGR
Sequence of Plasminogen (P00747 581-810 limits assumed): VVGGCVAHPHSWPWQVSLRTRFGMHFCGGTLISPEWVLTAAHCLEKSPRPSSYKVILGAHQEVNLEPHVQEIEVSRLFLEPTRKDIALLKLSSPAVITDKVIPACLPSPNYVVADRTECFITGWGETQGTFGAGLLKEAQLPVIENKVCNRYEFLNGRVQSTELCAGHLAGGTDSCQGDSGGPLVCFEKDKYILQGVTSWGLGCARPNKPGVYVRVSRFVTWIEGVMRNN
Sequence of Coagulation factor X (P00742 41-179 limits assumed): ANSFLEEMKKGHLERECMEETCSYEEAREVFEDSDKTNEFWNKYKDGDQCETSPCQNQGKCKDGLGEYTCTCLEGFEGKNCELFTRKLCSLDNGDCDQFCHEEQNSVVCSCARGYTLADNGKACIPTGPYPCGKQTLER
Sequence of Coagulation factor X (P00742 235-488 limits assumed): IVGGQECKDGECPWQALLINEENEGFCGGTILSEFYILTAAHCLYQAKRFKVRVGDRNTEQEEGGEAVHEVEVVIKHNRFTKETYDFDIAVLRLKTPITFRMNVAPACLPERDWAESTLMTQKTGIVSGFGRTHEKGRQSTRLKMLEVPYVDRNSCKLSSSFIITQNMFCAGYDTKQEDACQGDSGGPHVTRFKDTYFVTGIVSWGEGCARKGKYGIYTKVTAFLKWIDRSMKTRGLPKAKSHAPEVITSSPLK
Sequence of Coagulation factor XI (P03951 19-387 limits assumed): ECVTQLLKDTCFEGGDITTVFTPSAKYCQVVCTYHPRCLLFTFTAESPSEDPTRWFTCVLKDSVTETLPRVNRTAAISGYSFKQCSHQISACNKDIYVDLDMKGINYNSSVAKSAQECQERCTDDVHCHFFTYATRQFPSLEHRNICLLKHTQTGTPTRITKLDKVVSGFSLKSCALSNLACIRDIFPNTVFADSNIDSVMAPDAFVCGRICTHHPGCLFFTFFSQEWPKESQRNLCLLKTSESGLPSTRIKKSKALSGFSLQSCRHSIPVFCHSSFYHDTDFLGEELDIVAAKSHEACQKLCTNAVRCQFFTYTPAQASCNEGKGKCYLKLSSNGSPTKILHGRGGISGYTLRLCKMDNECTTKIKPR
Sequence of Coagulation factor XI (P03951 388-625 limits assumed): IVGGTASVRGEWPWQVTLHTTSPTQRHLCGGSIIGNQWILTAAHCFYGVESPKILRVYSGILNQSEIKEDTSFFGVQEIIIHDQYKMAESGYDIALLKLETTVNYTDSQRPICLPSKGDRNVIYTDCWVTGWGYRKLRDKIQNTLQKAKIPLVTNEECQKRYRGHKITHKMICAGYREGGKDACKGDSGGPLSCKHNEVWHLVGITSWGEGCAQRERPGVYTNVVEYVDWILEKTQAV

With O=C(O[C@H]1[C@H](OC(=O)c2cc(OS(=O)(=O)[O-])cc(OS(=O)(=O)[O-])c2)[C@H](OC(=O)c2cc(OS(=O)(=O)[O-])cc(OS(=O)(=O)[O-])c2)[C@@H](OC(=O)c2cc(OS(=O)(=O)[O-])cc(OS(=O)(=O)[O-])c2)[C@H](OC(=O)c2cc(OS(=O)(=O)[O-])cc(OS(=O)(=O)[O-])c2)[C@H]1OC(=O)c1cc(OS(=O)(=O)[O-])cc(OS(=O)(=O)[O-])c1)c1cc(OS(=O)(=O)[O-])cc(OS(=O)(=O)[O-])c1.[Na+].[Na+].[Na+].[Na+].[Na+].[Na+].[Na+].[Na+].[Na+].[Na+].[Na+].[Na+] the IC50 (Coagulation factor XII) was over 40 µM, the IC50 (Coagulation factor VII) was over 40 µM and the IC50 (Trypsin) was over 40 µM. The IC50 (Coagulation factor XI) was 0.28 µM, the IC50 (Plasminogen) was over 40 µM and the IC50 (Chymotrypsin) was over 40 µM. For the same molecule, the IC50 (Coagulation factor X) was over 40 µM and the IC50 (Prothrombin) was over 40 µM.
